Experimental data from US20050245527A1, “Nitrogen containing heterocyclic compounds and medicines containing the same” (priority 2002, published 2005).

Key:
[1] = system: left saphenous nerve of rats (ectopic firing); assay: Inhibition of ectopic firing; assay type: in vivo; details: Rattus norvegicus, iv; rats with cut left saphenous nerve, urethane anesthesia, compound via catheter in right cervical vein, number of firings in 10 seconds; read-out: Inhibition of ectopic firing (ID50)
Protocol: <Inhibition of Ectopic Firing>
(1) The inhibitory effect on ectopic firing was evaluated by the following method, with reference to Burchiel, K J., Exp. Neurol., 102, 249-253 (1988).
(2) The left saphenous nerve of rats, in which ectopic firing was observed, was cut near the knee joint, and approximately 3 mm was cut off to avoid reattachment of the cut nerve. After more than a week, the left saphenous nerve was exposed under urethane (1 g/kg body weight) anesthesia, and the proximal part up to approximately 1 cm from the cut site was detached from the surrounding tissue. A catheter was inserted in the right cervical vein beforehand for administration of the compound.
(3) The detached nerve was placed on a platinum hook electrode and wetted with liquid paraffin to avoid drying of the nerve. The electrode was connected to a microelectrode amplifier, and the change in potential was recorded from an oscilloscope through an A/D converter onto a computer. The recorded nerve firing was evaluated based on the number of firings in 10 seconds, using analyzing software (AcqKnowledge).

sodium channels = assay type: cell-based; details: read-out: IC50 (μM), sodium channel-inhibiting activity; rat fetal cultured hippocampal neurons, SBFI fluorescence in the presence of 4-aminopyridine, 5 minutes after addition, 1 μM tetrodotoxin = 100%

In the case of O=c1[nH]ccnc1CN1CCC(COc2ccccc2F)CC1 [Example 142, 3-[4-(2-Fluorophenoxymethyl)piperidino]methyl-1H-pyrazin-2-one], the ED50 [1] is reported as less than 0.5 mg/kg and the IC50 (sodium channels) is reported as 4.2 µM.
In the case of O=c1[nH]ccnc1CN1CCC(COc2cc(F)ccc2F)CC1 [Example 151, 3-[4-(2,5-Difluorophenoxymethyl)piperidino]methyl-1H-pyrazin-2-one], the ED50 [1] is reported as 0.5 to 1 mg/kg and the IC50 (sodium channels) is reported as 2.9 µM.
Cc1ccccc1OCC1(CCc2ccccc2F)CCN(Cc2ncc[nH]c2=O)CC1 [Example 225, 3-[4-[2-(2-Fluorophenyl)ethyl]-4-(2-methylphenoxymethyl)piperidino]methyl-1H-pyrazin-2-one] showed an ED50 [1] of 0.5 to 1 mg/kg and an IC50 (sodium channels) of 1.6 µM.
Compound O=c1[nH]ccnc1CN1CCCC(CCc2ccccc2F)C1 (stereo not drawn) [Example 156, 3-[3-[2-(2-Fluorophenyl)ethyl]piperidino]methyl-1H-pyrazin-2-one] has an ED50 [1] of 0.5 to 1 mg/kg and an IC50 (sodium channels) of 4.5 µM.
CSc1ccccc1CC(=O)C1CCN(Cc2ncc[nH]c2=O)CC1 [Example 343, 3-[4-[2-[2-(Methylthio)phenyl]acetyl]piperidino]methyl-1H-pyrazin-2-one] was tested, and the ED50 [1] was less than 0.5 mg/kg and the IC50 (sodium channels) was 3.5 µM.
O=c1cncc(CCN2CCC(COc3cc(F)ccc3F)CC2)[nH]1 [Example 241, 6-[2-[4-(2,5-Difluorophenoxymethyl)piperidino]ethyl]-1H-pyrazin-2-one] gave an ED50 [1] of 0.5 to 1 mg/kg and an IC50 (sodium channels) of 5 µM.
Compound O=c1[nH]cccc1CN1CCC(F)(COc2ccccc2F)CC1 [Example 124, 3-[4-Fluoro-4-(2-fluorophenoxymethyl)piperidino]methyl-1H-pyridin-2-one] has an ED50 [1] of less than 0.5 mg/kg and an IC50 (sodium channels) of 7.8 µM.
Cc1ccccc1OCC1CCN(Cc2ncc[nH]c2=O)CC1 [Example 147, 3-[4-(2-Methylphenoxymethyl)piperidino]methyl-1H-pyrazin-2-one] gave an ED50 [1] of less than 0.5 mg/kg and an IC50 (sodium channels) of 2.5 µM.
Compound O=c1[nH]cccc1CN1CCC(O)(COc2ccccc2F)CC1 [Example 253, 3-[4-Hydroxy-4-(2-fluorophenoxymethyl)piperidino]methyl-1H-pyridin-2-one] has an ED50 [1] of less than 0.5 mg/kg and an IC50 (sodium channels) of 9.2 µM.
Cc1ccccc1CC(=O)C1CCN(Cc2ncc[nH]c2=O)CC1 [Example 184, 3-[4-[2-(2-Methylphenyl)acetyl]piperidino]methyl-1H-pyrazin-2-one] gave an ED50 [1] of less than 0.5 mg/kg and an IC50 (sodium channels) of 2.9 µM.
For O=c1[nH]ccnc1CN1CCC(F)(COc2ccccc2F)CC1 [Example 223, 3-[4-Fluoro-4-(2-fluorophenoxymethyl)piperidino]methyl-1H-pyrazin-2-one], the ED50 [1] was 0.5 to 1 mg/kg and the IC50 (sodium channels) was 6 µM.
With Cc1ccccc1OCC1CCCN(Cc2ncc[nH]c2=O)C1 (stereo not drawn) [Example 154, 3-[3-(2-Methylphenoxymethyl)piperidino]methyl-1H-pyrazin-2-one] the ED50 [1] was 0.5 to 1 mg/kg and the IC50 (sodium channels) was 3.1 µM.
Work on Cc1cccc(OCC2CCN(Cc3ncc[nH]c3=O)CC2)c1 [Example 153, 3-[4-(3-Methylphenoxymethyl)piperidino]methyl-1H-pyrazin-2-one] yielded an ED50 [1] of 0.5 to 1 mg/kg and an IC50 (sodium channels) of 4.1 µM.
In the case of COc1ccccc1OCC1CCN(Cc2nc3ccccc3[nH]c2=O)CC1 [Example 205, 3-[4-(2-Methoxyphenoxymethyl)piperidino]methyl-1H-quinoxalin-2-one], the ED50 [1] is reported as 0.5 to 1 mg/kg and the IC50 (sodium channels) is reported as 2.6 µM.
O=C(Cc1ccccc1F)C1CCN(Cc2ncc[nH]c2=O)CC1 [Example 179, 3-[4-[2-(2-Fluorophenyl)acetyl]piperidino]methyl-1H-pyrazin-2-one] showed an ED50 [1] of less than 0.5 mg/kg and an IC50 (sodium channels) of 4.6 µM.
In the case of O=c1[nH]ccnc1CN1CCC(CCc2sccc2F)CC1 [Example 172, 3-[4-[2-(3-Fluoro-2-thienyl)ethyl]piperidino]methyl-1H-pyrazin-2-one], the ED50 [1] is reported as 0.5 to 1 mg/kg and the IC50 (sodium channels) is reported as 5 µM.
With CC(c1ncc[nH]c1=O)N1CCC(C(=O)Cc2ccccc2F)CC1 (stereo not drawn) [Example 350, 3-[1-[4-[2-(2-Fluorophenyl)acetyl]piperidino]ethyl]-1H-pyrazin-2-one] the ED50 [1] was less than 0.5 mg/kg and the IC50 (sodium channels) was 6 µM.
Compound O=c1[nH]ccnc1CN1CCC(CCc2ccccc2F)CC1 [Example 177, 3-[4-[2-(2-Fluorophenyl)ethyl]piperidino]methyl-1H-pyrazin-2-one] has an ED50 [1] of less than 0.5 mg/kg and an IC50 (sodium channels) of 4.5 µM.
O=C(Cc1c(F)cccc1C(F)(F)F)C1CCN(Cc2ncc[nH]c2=O)CC1 [Example 376, 3-[4-[2-[2-Fluoro-6-(trifluoromethyl)phenyl]acetyl]piperidino]methyl-1H-pyrazin-2-one] gave an ED50 [1] of less than 0.5 mg/kg and an IC50 (sodium channels) of 1.1 µM.
Compound O=C(Cc1ccccc1C(F)(F)F)C1CCN(Cc2ncc[nH]c2=O)CC1 [Example 344, 3-[4-[2-[2-(Trifluoromethyl)phenyl]acetyl]piperidino]methyl-1H-pyrazin-2-one] has an ED50 [1] of less than 0.5 mg/kg and an IC50 (sodium channels) of 4.4 µM.
CCOc1ccccc1CC(=O)C1CCN(Cc2ncc[nH]c2=O)CC1 [Example 347, 3-[4-[2-(2-Ethoxyphenyl)acetyl]piperidino]methyl-1H-pyrazin-2-one] gave an ED50 [1] of less than 0.5 mg/kg and an IC50 (sodium channels) of 3 µM.
O=C(CC1CCN(Cc2ncc[nH]c2=O)CC1)c1sccc1Cl [Example 169, 3-[4-[2-(3-Chloro-2-thienyl)-2-oxoethyl]piperidino]methyl-1H-pyrazin-2-one] was tested, and the ED50 [1] was 0.5 to 1 mg/kg and the IC50 (sodium channels) was 3.5 µM.
Compound O=C(Cc1c(F)cccc1F)C1CCN(Cc2ncc[nH]c2=O)CC1 [Example 195, 3-[4-[2-(2,6-Difluorophenyl)acetyl]piperidino]methyl-1H-pyrazin-2-one] has an ED50 [1] of 0.5 to 1 mg/kg and an IC50 (sodium channels) of 2 µM.
With O=c1[nH]ccnc1CN1CCC(COc2ccccc2Cl)CC1 [Example 158, 3-[4-(2-Chlorophenoxymethyl)piperidino]methyl-1H-pyrazin-2-one] the ED50 [1] was less than 0.5 mg/kg and the IC50 (sodium channels) was 3.7 µM.
With O=C(Cc1cccc(F)c1F)C1CCN(Cc2ncc[nH]c2=O)CC1 [Example 200, 3-[4-[2-(2,3-Difluorophenyl)acetyl]piperidino]methyl-1H-pyrazin-2-one] the ED50 [1] was 0.5 to 1 mg/kg and the IC50 (sodium channels) was 1.6 µM.
For Cc1ccc(-c2ccccc2)n1CC1(O)CCN(Cc2ncc[nH]c2=O)CC1 [Example 212, 3-[4-Hydroxy-4-(2-methyl-5-phenylpyrrol-1-yl)methyl-piperidino]methyl-1H-pyrazin-2-one], the ED50 [1] was 0.5 to 1 mg/kg and the IC50 (sodium channels) was 6.1 µM.
In the case of O=c1[nH]ccnc1CN1CCC(c2nc(-c3cccc(F)c3)no2)CC1 [Example 188, 3-[4-[3-(3-Fluorophenyl)-1,2,4-oxadiazol-5-yl]piperidino]methyl-1H-pyrazin-2-one], the ED50 [1] is reported as 0.5 to 1 mg/kg and the IC50 (sodium channels) is reported as 5 µM.
Work on O=c1[nH]ccnc1CN1CCC(COc2c(F)cccc2F)CC1 [Example 201, 3-[4-(2,6-Difluorophenoxymethyl)piperidino]methyl-1H-pyrazin-2-one] yielded an ED50 [1] of 0.5 to 1 mg/kg and an IC50 (sodium channels) of 6.7 µM.
CC1(C(=O)Cc2ccccc2F)CCN(Cc2ncc[nH]c2=O)CC1 [Example 365, 3-[4-[2-(2-Fluorophenyl)acetyl]-4-methylpiperidino]methyl-1H-pyrazin-2-one] gave an ED50 [1] of less than 0.5 mg/kg and an IC50 (sodium channels) of 3.4 µM.
Work on O=c1[nH]ccnc1CN1CCC(/C=C/c2cccc(F)c2)CC1 [Example 176, (E)-3-[4-[2-(3-Fluorophenyl)vinyl]piperidino]methyl-1H-pyrazin-2-one] yielded an ED50 [1] of 0.5 to 1 mg/kg and an IC50 (sodium channels) of 5.4 µM.
Cc1ccccc1COC1CCN(Cc2ncc[nH]c2=O)CC1 [Example 152, 3-[4-(2-Methylbenzyloxy)piperidino]methyl-1H-pyrazin-2-one] gave an ED50 [1] of 0.5 to 1 mg/kg and an IC50 (sodium channels) of 5.3 µM.
Cc1ccccc1OCC1(O)CCN(Cc2ncc[nH]c2=O)CC1 [Example 210, 3-[4-Hydroxy-4-(2-methylphenoxymethyl)piperidino]methyl-1H-pyrazin-2-one] showed an ED50 [1] of 0.5 to 1 mg/kg and an IC50 (sodium channels) of 6 µM.
For O=C(Cc1ccccc1Cl)C1CCN(Cc2ncc[nH]c2=O)CC1 [Example 183, 3-[4-[2-(2-Chlorophenyl)acetyl]piperidino]methyl-1H-pyrazin-2-one], the ED50 [1] was less than 0.5 mg/kg and the IC50 (sodium channels) was 2.6 µM.
O=c1[nH]cccc1CN1CC2CCCC(C1)C2/C=C/c1ccccc1F (stereo not drawn) [Example 129, anti-(E)-3-[9-[2-(2-Fluorophenyl)vinyl]-3-azabicyclo[3.3.1]non-3-yl]methyl-1H-pyridin-2-one] showed an ED50 [1] of 0.5 to 1 mg/kg and an IC50 (sodium channels) of 2.1 µM.
Cc1ccccc1OCC1CCN(CCc2cncc(=O)[nH]2)CC1 [Example 236, 6-[2-[4-(2-Methylphenoxymethyl)piperidino]ethyl]-1H-pyrazin-2-one] showed an ED50 [1] of less than 0.5 mg/kg and an IC50 (sodium channels) of 7 µM.
For O=c1[nH]ccnc1CN1CCC(CCc2ccccc2F)C1 (stereo not drawn) [Example 134, 3-[3-[2-(2-Fluorophenyl)ethyl]pyrrolidino]methyl-1H-pyrazin-2-one], the ED50 [1] was 0.5 to 1 mg/kg and the IC50 (sodium channels) was 3.1 µM.
O=c1[nH]ccnc1CN1CCC(CCc2cccc3c2OCC3)CC1 [Example 140, 3-[4-[2-(2,3-Dihydrobenzofuran-7-yl)ethyl]piperidino]methyl-1H-pyrazin-2-one] gave an ED50 [1] of less than 0.5 mg/kg and an IC50 (sodium channels) of 5.6 µM.
For O=c1[nH]ccnc1CN1CCC(C#Cc2ccccc2F)CC1 [Example 170, 3-[4-[(2-Fluorophenyl)ethynyl]piperidino]methyl-1H-pyrazin-2-one], the ED50 [1] was less than 0.5 mg/kg and the IC50 (sodium channels) was 0.4 µM.
With COc1ccccc1CC(=O)C1CCN(Cc2ncc[nH]c2=O)CC1 [Example 193, 3-[4-[2-(2-Methoxyphenyl)acetyl]piperidino]methyl-1H-pyrazin-2-one] the ED50 [1] was less than 0.5 mg/kg and the IC50 (sodium channels) was 2.9 µM.
